From US8221775B2, “Pyrrolin-2-ylamino compounds for combating animal pests” (BASF SE, priority 2008, dated 2012)

melting point: 130 to 134 °C
Compound: Brc1ccc(C2CCC(NC(Cc3ccccc3)c3ccccc3)=N2)cc1 (stereo not shown)
